The source of these data is patent US8785503B2, “Biphenyl compound or pharmaceutically acceptable salt thereof, method for preparing novel biphenyl compound or pharmaceutically acceptable salt thereof, and pharmaceutical composition containing same as active ingredient for preventing or treating diabetes complications” (Korea Institute of Oriental Medicine, priority 2010, dated 2014).

Each structure is given as a SMILES string.

One test relates to AGE formation. Briefly: Inhibitory effect on AGE formation (BSA with fructose and glucose, fluorescence Ex 350 nm / Em 450 nm). The test is classed as biochemical, bovine. As to conditions: for Inhibitory effect / IC50: 7 days. The method, then:
To determine the inhibitory effect of the compound of Chemical Formula 1 according to the present invention on formation of AGE, which are an indicator of diabetic complications and indicator of treatment efficiency assessment, the following experiment was carried out.
Bovine serum albumin (BSA) was used as a protein and the degree of binding to fructose and glucose was used as an indicator. Aminoguanidine, which is known to have very excellent inhibitory effect on AGE, was used as a positive control.
Bovine serum albumin (hereinafter, referred to as BSA; Sigma, U.S.A.) was used as a protein source. BSA was added to 50 mM phosphate buffer (pH 7.4) to be a concentration of 10 mg/mL. A mixed solution of 0.2 M fructose and 0.2 M glucose was used as a sugar source. The mixed solution of fructose and glucose was added to the prepared BSA solution. 2.5, 5 and 10 μg/mL of the compound of Chemical Formula 1 obtained from Example 1 were prepared (All compounds were dissolved in DMSO and 15% tween 80 was added thereto. Total amount of DMSO was 0.2%). The compound was added to the mixed solution of BSA and sugars and the mixture was cultured at 37° C. for 7 days.
At this time, 0.02% sodium azide and anticomycotics were added as an antibacterial agent and antifungal agents. A control was the cultured mixture of BSA and sugars. Blanks for the control and experimental group were those that were prepared but non-cultured. Aminoguanidine was used for a positive control, the indicator for comparing the effectiveness. All cultures were prepared in quadruplicate to avoid error as much as possible.
After 7 days, the amount of AGE produced from each culture was analyzed and the result was shown. AGE has fluorescence, brown color, and a physicochemical property capable of cross-linking and has ligands which cell membrane receptors can recognize. The amount of AGE having those characteristics was measured by a microplate reader (Excitation: 350 nm, Emission: 450 nm) to analyze the inhibition degree of formation (Vinson, J. A. et al., J. Nutr. Biochem., 7: 659-663, 1996), and the inhibition rate of formation was calculated using the following Equation 1.
Aminoguanidine was used for the positive control. Aminoguanidine was dissolved in distilled water and 37, 55.6. and 74 μg/mL of aminoguanidine were cultured for 7 days as described above. After 7 days, the amount of AGE produced from culture was measured by a microplate reader (Excitation: 350 nm, Emission: 450 nm).

For test [1], the system named is diabetic retinopathy-induced retina. Briefly: Diabetic retinopathy-induced (intravitreal BSA-AGE) rat model: FITC-dextran retinal vessels, retina Western blot. The test is classed as in vivo, Sprague Dawley (SD) white rats. As to the method: To determine the therapeutic effect of the compound of the present invention on retina, to which diabetic retinopathy, one example of diabetic complications, was induced, the following experiment was carried out. Sprague Dawley (SD) white rats (6 weeks) were obtained from Daehan Biolink Co. and acclimated for 7 days to the animal room. SD rats were divided into normal group, diabetic group, experimental group, and control group. The animal room was maintained under the following conditions: temperature 23° C.; humidity 40-60%; and 12 h light-dark cycle. Feeds for experimental animals and drinking water were provided without limitation. All experiments were carried out in accordance with Standard Operation Procedures (SOP) by Institutional Animal Care and Use Committee (IACUC). SD rats were anesthetized by an intraperitoneal injection of 5 mg/mL of Zoletil and 5 mg/mL of Rompun. 20 mg/mL of BSA-AGE alone for normal group and diabetic group and both 20 mg/mL of BSA-AGE and a drug for experimental group and control group were injected via Hamilton syringes and needles to eyes. At this time, the needle was introduced into the sclera, 3 mm away from the corneal limbus, and after confirming that the end of the needle was located in the vitreous cavity, administration was carried out. After 24 hours, eyes were removed. The compound of Chemical Formula 1 obtained from Example 1 was used for the drug. A mixture of the same amount of Zoletil and Rompun was intraperitoneally injected to anesthetize animals. Hearts were obtained by opening abdominal cavity and thoracic cavity. 1 mL of fluorescent isothiocyanate dextran (FITC-dextran, Sigma, St. Louis, Mo., USA) which was prepared by dissolving […] of FITC-dextran in 1 mL of sterile physiological saline was injected into the left ventricle. After 10 minutes, eyes were removed and separated from eyecups. Left eyes were incised in four directions and placed onto a slide glass. After mounting, left eyes were observed by a fluorescent microscope. For right eyes, only retina was separated from the eye and rapidly frozen in liquid nitrogen and stored at −70° C. To prepare BSA-AGE, 30 mM glucose (Sigma, St. Louis, Mo., USA) and 20 mg/mL of BSA (Roche, Germany) were added to sodium phosphate buffer (100 mM, pH 7.4) and cultured at 37° C. for 50 days. After 50 days, BSA-AGE was injected into PD-10 column and the remaining glucose was removed by dialysis and only pure BSA-AGE was obtained. Purified BSA-AGE was aliquoted and stored at −70° C. to use. Retina stored at −70° C. was homogenized with homogenization buffer (pH 7.6). Protein quantification was carried out by Lowry's principle and SDS-PAGE electrophoresis was carried out for each […]. Migrated proteins in a gel were immobilized onto a nitrocellulose membrane and transferred to the membrane at 100 V, 250 mA for 1.5 hours. Antibodies to be quantified were immunoabsorbed to the adsorbed proteins and color was developed using an enhanced-chemiluminescence (ECL) solution. Protein expression was determined by measuring the density with Scion image analysis program.
Background: A western blot detects proteins with antibodies after separation by electrophoresis.

For a further test, the system named is retinal angiogenesis. Put plainly: Oxygen induced retinopathy (OIR) mouse model: FITC-dextran, isolectin-B4 staining, retina Western blot. The test is classed as in vivo, mice (C58BL/6). The method, then: To determine the inhibitory effect of the compound of Chemical Formula 1 of the present invention on retinal angiogenesis, the following experiment was carried out. Experimental animals were mice born after crossbreeding 7-8-week-old C58BL/6. On 7th day after birth, mice (P7) were placed into an oxygen chamber and 75% of the oxygen concentration was maintained in the chamber for five days (P7-P11). 12-hour cyclic illumination was maintained in the animal room. Temperature was maintained at 24° C. Animals were allowed to access freely to feeds and drinking water. At an ambient atmosphere, the drug was intraperitoneally injected each day for five days (P12-P16). On 17th day after birth, 30 mg/kg of Zoletil (Zoletil 50, Virbac) and 10 mg/kg of Rompun (Bayer Korea) were mixed at a ratio of 3:2 and 10-fold diluted in physiological saline and 50 μL was intraperitoneally injected to anesthetize animals. After laparotomy, 100 μL of 50 mg/mL of FITC-dextran (Sigma, St. Louis, Mo., USA) dissolved in PBS was injected to a heart. When the heart stopped, eyes were removed. Retina was separated from one eye and stored at −70° C. The other eye was fixed using 4% paraformaldehyde for 10 min. After separation of retina, thin fixed retina slide was prepared and observed using a fluorescence microscope (BX51, Olympus, Japan). Retina was fixed in 4% paraformaldehyde for 3 hours, and washed with PBS, and then agitated in PBS containing triton X-100 and 1% bovine serum albumin for 3 hours. Retina was washed again and 1 mg/mL of isolectin-B4 (L2140, Sigma) was diluted in PBS to 1:50 and retina was agitated with isolectin-B4 at 4° C. for overnight. After washing the retina with PBS containing 0.05% Tween 20 for 2 hours, streptavidin-TRITC was diluted to 1:500 and allowed to react with retina at 37° C. for 4 hours. Then, retina was washed with PBS for 30 min and observed using a fluorescence microscope (BX51, Olympus, Japan). Retina stored at −70° C. was homogenized with homogenization buffer (pH 7.6). Protein quantification was carried out by Lowry's principle and SDS-PAGE electrophoresis was carried out for each 30 μg. Migrated proteins in a gel were immobilized onto a nitrocellulose membrane and transferred to the membrane at 100 V, 250 mA for 1.5 hours. Antibodies to be quantified were immunoabsorbed to the adsorbed proteins and color was developed using an enhanced-chemiluminescence (ECL) solution. Protein expression was determined by measuring the density with Scion image analysis program.

Setting [2] is: across doses, vs. diabetic group.
[3] abbreviates: 100 mg/kg, intraperitoneal P12-P16.
Setting [4] is: across doses, intraperitoneal P12-P16.

What is called IC50 is the concentration needed to halve the response being measured. A low value points to greater potency in that assay.

With `N=C(N)NN` [Aminoguanidine, reference compound], the Inhibitory effect in the test on AGE formation (37 μg/mL) amounted to 44.53 ± 2.33%; in the test on AGE formation (55.5 μg/mL), 49.97 ± 0.59%; in the test with AGE formation (74 μg/mL), 56.37 ± 0.67%. This compound displayed an IC50 in the test with AGE formation of 1060 ± 57.2 µM.

For `COc1cc(O)cc(-c2ccc(O)c(O)c2)c1` [Compound of Chemical Formula 1], the Inhibitory effect in the test with AGE formation (2.5 μg/mL) is 4.25 ± 5.38%; in the test on AGE formation (5 μg/mL), 17.16 ± 5.86%; with AGE formation (10 μg/mL), 54.17 ± 6.02%. In addition, in the test on AGE formation, the IC50 came to 41 ± 3.78 µM. Further, in the test with AGE formation (ratio of IC50 values, greater than control), the “inhibitory effect on AGE formation relative to aminoguanidine” value turned out to be 26 times. Moreover, the “Changes in occludin (retina, Western blot)” value in test [1] (100 μM, p<0.05 vs. AGE-BSA) is listed as “significant increase”; in test [1] (150 μM, p<0.05 vs. AGE-BSA), “significant increase”; in test [1] (setting [2]) it was “dose-dependent increase”. The “Changes in the angiogenic growth factor (retina, Western blot)” value in test [1] (100 μM, p<0.05 vs. AGE-BSA) is given as “significant decrease”; in test [1] (150 μM, p<0.05 vs. AGE-BSA) it was “significant decrease”; in test [1] (setting [2]), “dose-dependent decrease”; with retinal angiogenesis (100 mg/kg, p<0.05 vs. OIR) it was “significant decrease”; in the test on retinal angiogenesis (across doses, vs. OIR group), “dose-dependent decrease”. In the test on retinal angiogenesis (setting [3]), the “angiogenesis (isolectin-B4 staining)” value was “significantly inhibited”. Further, the “avascular area (FITC-dextran)” value with retinal angiogenesis (setting [3]) was “significantly reduced”. In addition, in the test on retinal angiogenesis (setting [3]), the “increase in length by vascular tortuosity” value is “reduced”. Also, the “neovascular tufts (isolectin-B4 staining)” value in the test on retinal angiogenesis (setting [4]) was “ameliorated in a dose-dependent manner”. For the same compound, the “vascular tortuosity (FITC-dextran)” value in the test on retinal angiogenesis (setting [4]) was “ameliorated in a dose-dependent manner”.
